In patent publication US20090048301A1 (IMCLONE SYSTEMS INCORPORATED, priority 2003, published 2009):

Assays:
bovine tubulin = test: In vitro tubulin polymerization assay (turbidity at 340 nm); format: biochemical; conditions: 10 μM compound, 30 minute data point, vs 1% DMSO control
In short: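 Percent inhibition derives from turbidity (340 nm) at 30 min relative to 1% DMSO controls, read every minute at 37° C. Polymerization mix: 3 mg/ml bovine tubulin, <3% MAPs, in PIPES pH 7 G-PEM with 1 mM GTP, 1 mM MgCl2, 5% glycerol; enhancers also detectable.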

[1] = test system: A431 human cancer cell line; test: Sulphorhodamine B (SRB) growth inhibition assay; format: cell-based; conditions: A-431, A431 cells, 48 hours, read-out: SRB Assay: μM required to inhibit tumor cell growth by 50% (GI50)
Description: The in vitro growth inhibition activity of the compounds was determined by the Sulphorhodamine B assay. (Skehan P, Storeng R, Scudiero D, Monks A, McMahon J, Vistica D, Warren J T, Bokesch H, Kenney S, Boyd M R. New colorimetric cytotoxicity assay for anticancer-drug screening. J Natl Cancer Inst 82, 1107-1112, 1990). Sulphorhodamine B binds to basic amino acids and stains proteins which can be eluted and detected spectrophotometically by measuring absorbance at 515 nm. The absorbance was indicative of the total protein content of the cells fixed to the walls of the plate well at a given time by trichloroacetic acid, which is a measure of the viable cell concentration.
The in vitro growth inhibition activity of the compounds was determined using a Sulphorhodamine B assay. See, Skehan et al., “New colorimetric cytotoxicity assay for anticancer-drug screening,” J. Natl. Cancer Inst., 82, 1107-1112, (1990). Sulphorhodamine B binds to basic amino acids and stains proteins which can be eluted and detected spectrophotometically by measuring absorbance at 515 nm. The absorbance indicates the total protein content of the cells fixed to the walls of the plate well at a given time by trichloroacetic acid, which is a measure of the viable cell concentration.
The reagents used in the assay can be purchased from commercial sources and include Sulphorhodamine B 0.4% (w/v) in 1% (v/v) acetic acid (Sigma Cat#S-1402); trichloroacetic acid 50% (w/v) in deionized water, working solution (Sigma Cat#T-9159); and trizma base (Tris) 10 mM working solution, pH 7.5 (Sigma Cat#T-7693).
The procedure was cared out over four days. In Day 1, the cells were seeded in a seed 10,000 cells/100 μL/well in 96 well plate in duplicates as per template. Also, seed cells in extra plate for time zero (To plate). Thereafter, the cells were incubated for 24 hours at 37° C. with 5% CO2.
On Day 2, the test compound was added to the cells at five log doses from 100 μM to 0.01 μM (Volume of addition=100 μL in 1% DMSO for all compound concentrations, Control treatment=1% DMSO).
The compounds were prepared by weighing the test compounds in 1.5 ml eppendorf tubes and calculating the volume of DMSO to be added to bring the concentration of the compound to 20 mM. Thereafter, a 20 mM stock was made and diluted by four 10 fold dilutions in DMSO to get 2, 0.2, 0.02 and 0.002 mM solutions. Each solution was diluted 100 times (10 μL to 1 ml medium) and a further addition to the culture plate (100 μL) to half the concentration of cells was made. The final well concentration for 20 mM stock was 100 μM and similarly with other test concentrations.
The cells were incubated for 48 hours at 37° C. with 5% CO2 and terminated by adding 50 μL of 50% cold trichloroacetic acid (10% to final). Thereafter, the cells were incubated for one hour at 4° C.
On Day 4, the cells were fixed to the wells by the addition of 50 μL of 50% cold trichloroacetic acid (10% to final) and incubated for 1 hour at 4° C. The supernatant was discarded by force inverting the plate into the sink followed by washing thrice with tap water and the plates are then air-dried. 100 μL SRB (0.4% in 1% acetic acid) was added to each well and the plates were incubated for 10 minutes at room temperature. Unbound dye was removed by force inverting the plate into the sink and washing thrice with 1% acetic acid. Thereafter, the plates were allowed to air dry.
Bound SRB was solubilized with 100 μL of 10 mM Tris, pH 7.4 and the absorbance was measured at a wavelength of 515 nm.
A sample set of calculations was performed as follows. The percentage growth was calculated by T-To/C-To X 100 if T>To and T-To/To X 100 if T<To, wherein T is Test OD (with compound), C is Control OD, To is Time Zero OD (cell growth at the time of drug addition). […]

SMILES	Tubulin Assay: percent inhibition at 10 μM based on 30 minute data (bovine tubulin)	GI50 [1]
COc1cc(Nc2ncccc2-c2nnc(Nc3ccc(OC)cc3OC)[nH]2)cc(OC)c1 [Compound 12, (3,5-Dimethoxy-phenyl)-{3-[5-(2,4-dimethoxy-phenylamino)-4H-[1,2,4]triazol-3-yl]-pyridin-2-yl}-amine]	46%	20 µM
COc1cc(Nc2nnc(-c3cccnc3NCc3ccc4c(c3)OCO4)[nH]2)cc(OC)c1 [Compound 16, Benzo[1,3]dioxol-5-ylmethyl-{3-[5-(3,5-dimethoxy-phenylamino)-4H-[1,2,4]triazol-3-yl]-pyridin-2-yl}-amine]	41%	2.5 µM
c1cnc(NCc2ccc3c(c2)OCO3)c(-c2nnc(Nc3ccc4c(c3)OCO4)[nH]2)c1 [Compound 33, {3-[5-(Benzo[1,3]dioxol-5-ylamino)-4H-[1,2,4]triazol-3-yl]-pyridin-2-yl}-benzo[1,3]dioxol-5-ylmethyl-amine]	60%	10 µM
COc1cc(Nc2ncccc2-c2nnc(Nc3cc(Cl)cc(Cl)c3)[nH]2)cc(OC)c1 [Compound 53, {3-[5-(3,5-Dichloro-phenylamino)-4H-[1,2,4]triazol-3-yl]-pyridin-2-yl}-(3,5-dimethoxy-phenyl)-amine]	44%	6 µM
CS(=O)(=O)c1ccc(-c2nnc(-c3cccnc3NCCCN3CCCC3=O)[nH]2)cc1 [Compound 75, 1-(3-{3-[5-(4-Methanesulfonyl-phenyl)-4H-[1,2,4]triazol-3-yl]-pyridin-2-ylamino}-propyl)-pyrrolidin-2-one]	60%	80 µM
COc1cc(CNc2ncccc2-c2nnc(-c3cccc(OC)c3)[nH]2)cc(OC)c1 [Compound 79, (3,5-Dimethoxy-benzyl)-{3-[5-(3-methoxy-phenyl)-4H-[1,2,4]triazol-3-yl]-pyridin-2-yl}-amine]	32%	20 µM
COc1cccc(-c2nnc(-c3cccnc3NCc3ccc4c(c3)OCO4)[nH]2)c1 [Compound 80, Benzo[1,3]dioxol-5-ylmethyl-{3-[5-(3-methoxy-phenyl)-4H-[1,2,4]triazol-3-yl]-pyridin-2-yl}-amine]	46%	8 µM
Fc1cccc(-c2nnc(-c3cccnc3NCc3ccc4c(c3)OCO4)[nH]2)c1 [Compound 82, Benzo[1,3]dioxol-5-ylmethyl-{3-[5-(3-fluoro-phenyl)-4H-[1,2,4]triazol-3-yl]-pyridin-2-yl}-amine]	30%	20 µM
FC(F)(F)c1ccc(-c2nnc(-c3cccnc3NCc3ccc4c(c3)OCO4)[nH]2)cc1 [Compound 84, Benzo[1,3]dioxol-5-ylmethyl-{3-[5-(4-trifluoromethyl-phenyl)-4H-[1,2,4]triazol-3-yl]-pyridin-2-yl}-amine]	27%	2.5 µM
FC(F)(F)c1ccc(-c2nnc(-c3cccnc3NCc3cccnc3)[nH]2)cc1 [Compound 86, Pyridin-3-ylmethyl-{3-[5-(4-trifluoromethyl-phenyl)-4H-[1,2,4]triazol-3-yl]-pyridin-2-yl}-amine]	31%	2.2 µM
COc1cc(OC)cc(-c2nnc(-c3cccnc3NCc3cccnc3)[nH]2)c1 [Compound 87, {3-[5-(3,5-Dimethoxy-phenyl)-4H-[1,2,4]triazol-3-yl]-pyridin-2-yl}-pyridin-3-ylmethyl-amine]	85%	30 µM
CS(=O)(=O)c1ccc(-c2nnc(-c3cccnc3NCc3cccnc3)[nH]2)cc1 [Compound 89, {3-[5-(4-Methanesulfonyl-phenyl)-4H-[1,2,4]triazol-3-yl]-pyridin-2-yl}-pyridin-3-ylmethyl-amine]	85%	5 µM
Fc1ccc(OCc2nnc(-c3cccnc3NCc3ccc4c(c3)OCO4)[nH]2)cc1 [Compound 109, Benzo[1,3]dioxol-5-ylmethyl-{3-[5-(4-fluoro-phenoxymethyl)-4H-[1,2,4]triazol-3-yl]-pyridin-2-yl}-amine]	41%	30 µM
c1ccc(-c2nnc(Nc3ccc4c(c3)OCO4)[nH]2)c(NCc2ccncc2)c1 [Compound 111, Benzo[1,3]dioxol-5-yl-(5-{2-[(pyridin-4-ylmethyl)-amino]-phenyl}-4H-[1,2,4]triazol-3-yl)-amine]	70%	10 µM
FC(F)(F)c1cccc(-c2nnc(-c3ccccc3NCc3cccnc3)[nH]2)c1 [Compound 130, Pyridin-3-ylmethyl-{2-[5-(3-trifluoromethyl-phenyl)-4H-[1,2,4]triazol-3-yl]-phenyl}-amine]	47%	2.75 µM
COc1cc(OC)cc(-c2nnc(-c3ccccc3NCc3ccncc3)[nH]2)c1 [Compound 132, {2-[5-(3,5-Dimethoxy-phenyl)-4H-[1,2,4]triazol-3-yl]-phenyl}-pyridin-4-ylmethyl-amine]	46%	100 µM
COc1cc(Nc2ncccc2-c2nnc(Nc3ccc(OC)c(OC)c3)o2)cc(OC)c1 [Compound 178, (3,5-Dimethoxy-phenyl)-{3-[5-(3,4-dimethoxy-phenylamino)-[1,3,4]oxadiazol-2-yl]-pyridin-2-yl}-amine]	40%	0.3 µM
FC(F)(F)Oc1ccc(Nc2nnc(-c3cccnc3NCc3ccc4c(c3)OCO4)o2)cc1 [Compound 179, Benzo[1,3]dioxol-5-ylmethyl-{3-[5-(4-trifluoromethoxy-phenylamino)-[1,3,4]oxadiazol-2-yl]-pyridin-2-yl}-amine]	28%	30 µM
COc1ccc(Nc2nnc(-c3cccnc3NCc3ccc4c(c3)OCO4)o2)cc1OC [Compound 180, Benzo[1,3]dioxol-5-ylmethyl-{3-[5-(3,4-dimethoxy-phenylamino)-[1,3,4]oxadiazol-2-yl]-pyridin-2-yl}-amine]	32%	1.5 µM
COc1cccc(Nc2nnc(-c3cccnc3NCc3cccnc3)o2)c1 [Compound 185, {3-[5-(3-Methoxy-phenylamino)-[1,3,4]oxadiazol-2-yl]-pyridin-2-yl}-pyridin-3-ylmethyl-amine]	40%	30 µM
COc1cccc(Nc2nnc(-c3cccnc3NCc3ccc4c(c3)OCO4)o2)c1 [Compound 186, Benzo[1,3]dioxol-5-ylmethyl-{3-[5-(3-methoxy-phenylamino)-[1,3,4]oxadiazol-2-yl]-pyridin-2-yl}-amine]	42%	100 µM
COc1cc(Nc2nnc(-c3cccnc3Nc3cc(OC)cc(OC)c3)o2)cc(OC)c1 [Compound 187, (3,5-Dimethoxy-phenyl)-{3-[5-(3,5-dimethoxy-phenylamino)-[1,3,4]oxadiazol-2-yl]-pyridin-2-yl}-amine]	48%	80 µM
